From US20050158374A1, “Compositions and dosage forms for enhanced absorption of metformin” (priority 2003, published 2005)
≈ marks a conversion by molar mass, not a printed value. Counter-ions that a name gives are not always drawn. Like-named read-outs stand apart in the source and are kept apart here.

Experiments:
[1] = cited from earlier work
[2] = in vivo; conditions: rat, po, 40 mg/kg
[3] = for macroscopic evaluation of the G.I. tract for signs of irritation: end of oral gavage study; for time of plasma concentration maximum after treatment: rat, in vivo, po
[4] = in vivo; conditions: Sprague-Dawley, rat, plasma, iv, 2 mg/kg
[5] = in vivo; conditions: male, Sprague-Dawley, rat, plasma, other: intracolonic bolus, ligated colon, 10 mg/rat
[6] = in vivo colonic absorption using flushed ligated colonic model in rats; conditions: 10 mg/rat intubated into ligated colon
[7] = intravenous administration of metformin HCl to rats; conditions: for Metformin base plasma concentration, Average / Metformin base plasma concentration, Rat2 / Metformin base plasma concentration, Rat3 / Metformin base plasma concentration, Rat1: 2 mg/kg intravenously
[8] = in vivo
[9] = conductivity of complexes in aqueous solutions; conditions: aqueous solution pH≅5.8, 23° C.

## CCCCCCCCCCCC(=O)O [Lauric (12), lauric acid]
[1]; 20° C.
  Solubility in Acetic acid: 818 mg/mL (≈ 4080 mM)
  Solubility in Acetone: 605 mg/mL (≈ 3020 mM)
  Solubility in Acetonitrile: 76 mg/mL (≈ 379 mM)
  Solubility in Benzene: 936 mg/mL (≈ 4670 mM)
  Solubility in Chloroform: 830 mg/mL (≈ 4140 mM)
  Solubility in Cyclohexanne: 680 mg/mL (≈ 3390 mM)
  Solubility in Ethanol 95%: 912 mg/mL (≈ 4550 mM)
  Solubility in Methanol: 1200 mg/mL (≈ 5990 mM)

## CN(C)C(=N)N=C(N)N [Metformin HCl, metformin hydrochloride]
[2]
  Cmax: ~4080 ng/mL
[3]
  macroscopic evaluation of the G.I. tract for signs of irritation: No irritation
  time of plasma concentration maximum after treatment: about 1 hour
[4]
  concentration at 0 h: 0 ng/mL
  concentration at 1 h: 35.5 ng/mL
  concentration at 2 h: 0 ng/mL
  concentration at 3 h: 0 ng/mL
[5]
  concentration at 0 h: 0 ng/mL
[6]
  Area Under the Curve (0-4 hrs, based on 1 mg base/rat): 29.2 ng · h/mL-mg
[7]; Time 0 h
  Metformin base plasma concentration, Average: 0.0 ng/mL
  Metformin base plasma concentration, Rat2: 0 ng/mL
  Metformin base plasma concentration, Rat3: 0 ng/mL
[7]; Time 2 min
  Metformin base plasma concentration, Average: 2483.3 ng/mL
  Metformin base plasma concentration, Rat1: 1430 ng/mL
  Metformin base plasma concentration, Rat2: 2370 ng/mL
  Metformin base plasma concentration, Rat3: 3650 ng/mL
[7]; Time 0.5 h
  Metformin base plasma concentration, Average: 229.2 ng/mL
  Metformin base plasma concentration, Rat1: 262 ng/mL
  Metformin base plasma concentration, Rat2: 331 ng/mL
  Metformin base plasma concentration, Rat3: 94.7 ng/mL
[7]; Time 1 h
  Metformin base plasma concentration, Average: 30.4 ng/mL
  Metformin base plasma concentration, Rat3: 25.2 ng/mL
[7]; Time 1.5 h
  Metformin base plasma concentration, Average: 22.1 ng/mL
  Metformin base plasma concentration, Rat1: 0 ng/mL
  Metformin base plasma concentration, Rat2: 66.3 ng/mL
  Metformin base plasma concentration, Rat3: 0 ng/mL
[7]; Time 2 h
  Metformin base plasma concentration, Average: 0.0 ng/mL
  Metformin base plasma concentration, Rat2: 0 ng/mL
  Metformin base plasma concentration, Rat3: 0 ng/mL
[7]; Time 3 h
  Metformin base plasma concentration, Average: 0.0 ng/mL
  Metformin base plasma concentration, Rat2: 0 ng/mL
  Metformin base plasma concentration, Rat3: 0 ng/mL
[7]; i.v.
  Area Under the Curve (0-4 hrs, based on 1 mg base/rat): 692.5 ng · h/mL-mg

## CCCCCCCCCC(=O)O.CN(C)C(=N)N=C(N)N [Metformin caprate]
[8]
  Area Under the Curve (0-4 hrs, based on 1 mg base/rat): 548.0 ng · h/mL-mg

## CCCCCCCCCCCC(=O)O.CN(C)C(=N)N=C(N)N [Metformin laurate]
[3]
  macroscopic evaluation of the G.I. tract for signs of irritation: No irritation
  time of plasma concentration maximum after treatment: about 1 hour
[8]
  Area Under the Curve (0-4 hrs, based on 1 mg base/rat): 674.5 ng · h/mL-mg

## CCCCCCCCCCCCCC(=O)O [myristic (14), myristic acid]
[1]
  Solubility in Acetic acid: 102 mg/mL (≈ 447 mM)
  Solubility in Acetone: 159 mg/mL (≈ 696 mM)
  Solubility in Acetonitrile: 18 mg/mL (≈ 78.8 mM)
  Solubility in Benzene: 292 mg/mL (≈ 1280 mM)
  Solubility in Chloroform: 325 mg/mL (≈ 1420 mM)
  Solubility in Cyclohexanne: 215 mg/mL (≈ 941 mM)
  Solubility in Ethanol 95%: 189 mg/mL (≈ 828 mM)
  Solubility in Methanol: 173 mg/mL (≈ 758 mM)

## Metformin oleate
[9]; metformin concentration 5 mM
  Conductivity: 136 μS/cm
[9]; metformin concentration 10 mM
  Conductivity: 235 μS/cm
[9]; metformin concentration 20 mM
  Conductivity: 405 μS/cm
[6]
  Area Under the Curve (0-4 hrs, based on 1 mg base/rat): 408.3 ng · h/mL-mg
